Measurements as given in paper PMC5824847, “Linear peptidomimetics as potent antagonists of Staphylococcus aureus agr quorum sensing” (Scientific Reports, 2018).
Values after ≈ are worked out from the molar mass of the structure shown. “Also recorded” adds a separate entry of the source. Square brackets hold non-standard residues; d marks the D form. Peptide text beside a SMILES is read from it. N(1-naphthylmethyl)Gly = O=C(O)CNCc1cccc2ccccc12; N(4-MeBn)Gly = Cc1ccc(CNCC(=O)O)cc1; NBuGly = CCCCNCC(=O)O

Columns and labels:
[1] = RP-HPLC retention time (hydrophobicity); assay type: physicochemical; conditions: analytical RP-HPLC; used by the paper as a measure of hydrophobicity
Procedure: The synthesis of the peptidomimetics was performed as described by Oddo et al. (2015)[51]. According to this, a combination of Fmoc Solid Phase Peptide Synthesis (SPPS) and sub-monomer approach was applied. After the synthesis, the peptidomimetics were purified (>95%) by preparative HPLC and the purity was determined through analytical HPLC. Moreover, the MALDI-TOF-MS was used in order to verify the identity of the peptidomimetics.

[2] = system: S. aureus virulence gene expression (agr; RNAIII, hla, spa reporters); assay: Agar diffusion reporter assay, overall activity on the three reporters; assay type: cell-based, Staphylococcus aureus; conditions: TSA plates with RNAIII::lacZ, hla::lacZ and spa::lacZ reporters, 10 μg/well (500 μg/ml; 20 μl/well)
Procedure: The reporter assay was conducted as described by Nielsen et al. (2010) using three different lacZ transcriptional reporter strains, PC203, PC322 and SH101F[37]. Test compounds dissolved in H2O or DMSO was added to agar wells at indicated concentrations and solvent only was included as a control. Incubation until blue color appeared in plates varied from 9 h to 48 h. The ability of the peptidomimetics to influence virulence gene expression was observed based on the color change around the wells; a white halo represents downregulation of virulence gene expression, while a blue halo represents upregulation of expression, with the size of the halo being indicative of the degree of interference.

[3] = system: 8325-4 and RN10829 WT S. aureus strains; assay: Minimum Inhibitory Concentration (MIC); assay type: cell-based, Staphylococcus aureus; conditions: TSB, two-fold dilution series 4 to 256 μg/ml, approx. 5 × 10^5 CFU/ml, 24 hours at 37 °C; lowest concentration with no growth; values identical for 8325-4 and RN10829 WT
Procedure: Overnight cultures (24 h, 37 °C, 200 rpm in TSB) of S. aureus strains were diluted 5000X in fresh TSB and was aliquoted into 96-well microtiter plates with two-fold dilution series of the peptidomimetics ranging from 4 μg/ml to 256 μg/ml (final concentration) to reach an initial cell density of approximately 5 × 10^5 CFU/ml. DMSO was used as control and the plate was incubated for 24 hours at 37 °C. The MICs of the peptidomimetics were recorded as the lowest concentration for which no bacterial growth was observed.
Supplementary Table S2: Minimum Inhibitory Concentration (MIC) of the peptidomimetics tested on 8325-4 and RN10829 WT S. aureus strains (MIC values were identical for both strains, thus are represented here in one column).

CCCCN(CC(=O)N(CC(=O)NCC(N)=O)Cc1cccc2ccccc12)C(=O)[C@H](CCCCN)NC(=O)[C@H](CCCCN)NC(=O)CN(Cc1ccc(C)cc1)C(=O)CNCc1cccc2ccccc12 [G7] (H-[N(1-naphthylmethyl)Gly][N(4-MeBn)Gly]KK[NBuGly][N(1-naphthylmethyl)Gly]G-NH2)
Rt (RP-HPLC retention time) [1]: 17.5 min
Activity on virulence gene expression (agr modulatory activity), overall [2]: increased activity; also recorded: greatly improved agr-inhibitory activity compared to D3
MIC [3]: 64 µg/mL (≈ 64 µM)
